Test: excess molar enthalpy (molar enthalpy of mixing); xn = mol fraction of the nth substance listed
Settings: 100 kPa

CCOCCOCCO + CCOC(=O)OCC
Settings	excess molar enthalpy [kcal/mol]
298.15 K, x2 = 0.1227	0.0459
298.15 K, x2 = 0.1571	0.0614
298.15 K, x2 = 0.2185	0.0837
298.15 K, x2 = 0.2716	0.102
298.15 K, x2 = 0.3587	0.128
298.15 K, x2 = 0.4271	0.146
298.15 K, x2 = 0.528	0.163
298.15 K, x2 = 0.6911	0.168
298.15 K, x2 = 0.8173	0.141
298.15 K, x2 = 0.8995	0.0985
298.15 K, x2 = 0.9307	0.0748
298.15 K, x2 = 0.9641	0.0425
313.15 K, x2 = 0.0443	0.0198
313.15 K, x2 = 0.1222	0.0574
313.15 K, x2 = 0.1566	0.0767
313.15 K, x2 = 0.2313	0.109
313.15 K, x2 = 0.2708	0.126
313.15 K, x2 = 0.3578	0.157
313.15 K, x2 = 0.4261	0.175
313.15 K, x2 = 0.527	0.197
313.15 K, x2 = 0.6257	0.202
313.15 K, x2 = 0.7697	0.184
313.15 K, x2 = 0.8167	0.167
313.15 K, x2 = 0.8699	0.139
313.15 K, x2 = 0.8991	0.117
313.15 K, x2 = 0.9304	0.0872

COCCO + CCOC(=O)OCC
298.15 K
Settings	excess molar enthalpy [kcal/mol]
x2 = 0.0263	0.0225
x2 = 0.0264	0.0191
x2 = 0.0512	0.0437
x2 = 0.0514	0.0363
x2 = 0.075	0.0607
x2 = 0.0975	0.0798
x2 = 0.0978	0.0672
x2 = 0.1395	0.112
x2 = 0.1398	0.0973
x2 = 0.1777	0.138
x2 = 0.1781	0.119
x2 = 0.2454	0.153
x2 = 0.3017	0.208
x2 = 0.3023	0.178
x2 = 0.3933	0.246
x2 = 0.3941	0.211
x2 = 0.4931	0.268
x2 = 0.4939	0.23
x2 = 0.5646	0.274
x2 = 0.5653	0.237
x2 = 0.6605	0.265
x2 = 0.6611	0.23
x2 = 0.7217	0.247
x2 = 0.7223	0.218
x2 = 0.796	0.188
x2 = 0.8384	0.182
x2 = 0.8388	0.164
x2 = 0.8861	0.142
x2 = 0.8864	0.129
x2 = 0.9396	0.0841
x2 = 0.9398	0.0767

COCCOCCO + CCOC(=O)OCC
Settings	excess molar enthalpy [kcal/mol]
298.15 K, x2 = 0.0388	0.0174
298.15 K, x2 = 0.0748	0.0337
298.15 K, x2 = 0.1392	0.06
298.15 K, x2 = 0.1952	0.0827
298.15 K, x2 = 0.2444	0.103
298.15 K, x2 = 0.3267	0.126
298.15 K, x2 = 0.3927	0.146
298.15 K, x2 = 0.66	0.175
298.15 K, x2 = 0.7443	0.165
298.15 K, x2 = 0.7951	0.151
298.15 K, x2 = 0.8534	0.125
298.15 K, x2 = 0.8859	0.109
298.15 K, x2 = 0.9209	0.0827
298.15 K, x2 = 0.9588	0.0471
313.15 K, x2 = 0.0387	0.0201
313.15 K, x2 = 0.1077	0.0576
313.15 K, x2 = 0.1386	0.0739
313.15 K, x2 = 0.1945	0.101
313.15 K, x2 = 0.2436	0.125
313.15 K, x2 = 0.3257	0.157
313.15 K, x2 = 0.3916	0.179
313.15 K, x2 = 0.4914	0.202
313.15 K, x2 = 0.6589	0.215
313.15 K, x2 = 0.7435	0.201
313.15 K, x2 = 0.7944	0.185
313.15 K, x2 = 0.8529	0.156
313.15 K, x2 = 0.8854	0.133
313.15 K, x2 = 0.9587	0.0583
